Measurements published in ChEMBL document CHEMBL5038576 (J Med Chem, 2021).

What was measured:
Adenosine receptor A1 = biological target: T1, Adenosine receptor A1 (Homo sapiens, UniProt P30542)
T1 sequence (P30542 whole entry): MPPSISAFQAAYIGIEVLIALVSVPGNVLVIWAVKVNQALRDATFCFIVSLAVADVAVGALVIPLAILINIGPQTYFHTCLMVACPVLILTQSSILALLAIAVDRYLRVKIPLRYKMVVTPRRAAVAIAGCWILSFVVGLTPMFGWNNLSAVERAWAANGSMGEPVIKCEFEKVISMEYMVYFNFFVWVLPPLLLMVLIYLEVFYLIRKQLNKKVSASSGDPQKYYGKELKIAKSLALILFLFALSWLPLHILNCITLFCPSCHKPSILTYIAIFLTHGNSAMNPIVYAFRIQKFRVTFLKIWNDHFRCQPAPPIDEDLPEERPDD

Adenosine receptor A2b = biological target: T2, Adenosine receptor A2b (Homo sapiens, UniProt P29275)
T2 sequence (P29275 whole entry): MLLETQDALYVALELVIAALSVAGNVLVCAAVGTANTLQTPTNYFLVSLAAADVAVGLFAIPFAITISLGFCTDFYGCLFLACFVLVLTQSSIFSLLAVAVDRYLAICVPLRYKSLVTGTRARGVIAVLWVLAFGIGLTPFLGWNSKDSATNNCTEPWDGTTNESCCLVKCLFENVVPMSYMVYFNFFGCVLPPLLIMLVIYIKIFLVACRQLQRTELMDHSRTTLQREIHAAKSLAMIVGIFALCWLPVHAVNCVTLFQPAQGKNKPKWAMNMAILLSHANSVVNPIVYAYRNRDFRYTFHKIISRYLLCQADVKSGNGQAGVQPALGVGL

Adenosine receptor A2a [1] = biological target: T3, Adenosine receptor A2a (Homo sapiens, UniProt P29274); test: Displacement of [3H]ZM241385 from human A2A receptor expressed in HEK293 cell membranes at 10 uM measured after 3 hrs by radioligand binding assay relative to control; conditions: Membrane
T3 sequence (P29274 whole entry): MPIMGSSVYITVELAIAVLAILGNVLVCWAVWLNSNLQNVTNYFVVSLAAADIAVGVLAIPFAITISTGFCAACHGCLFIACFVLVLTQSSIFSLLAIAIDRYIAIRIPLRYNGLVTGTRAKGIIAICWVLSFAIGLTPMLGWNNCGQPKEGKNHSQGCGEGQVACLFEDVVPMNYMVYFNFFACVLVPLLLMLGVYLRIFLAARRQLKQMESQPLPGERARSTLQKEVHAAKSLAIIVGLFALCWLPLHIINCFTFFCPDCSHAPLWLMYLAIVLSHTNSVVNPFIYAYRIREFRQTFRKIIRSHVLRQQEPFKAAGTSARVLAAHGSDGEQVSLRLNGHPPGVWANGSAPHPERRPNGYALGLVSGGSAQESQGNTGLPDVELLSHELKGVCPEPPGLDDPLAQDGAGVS

[2] = biological target: T4, Adenosine receptor A3 (Homo sapiens) (UniProt P0DMS8); test: Displacement of [3H]PSB-11 from human A3 receptor expressed in CHO cell membranes at 10 uM measured after 3 hrs by radioligand binding assay relative to control; conditions: Membrane
T4 sequence (whole entry): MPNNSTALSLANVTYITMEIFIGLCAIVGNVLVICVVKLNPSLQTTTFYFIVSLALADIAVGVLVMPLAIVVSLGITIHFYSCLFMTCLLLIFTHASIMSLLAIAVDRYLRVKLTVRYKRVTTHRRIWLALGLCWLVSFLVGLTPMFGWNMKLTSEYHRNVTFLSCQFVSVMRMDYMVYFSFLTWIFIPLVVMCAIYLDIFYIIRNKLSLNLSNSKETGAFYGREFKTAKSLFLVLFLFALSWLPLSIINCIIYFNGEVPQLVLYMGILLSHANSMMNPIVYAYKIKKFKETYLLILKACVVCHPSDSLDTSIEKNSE

[3] = biological target: T5, Adenosine receptor A2b (Homo sapiens) (UniProt P29275); test: Displacement of [3H]PSB-603 from human A2B receptor expressed in CHO cell membranes at 1 uM measured after 3 hrs by radioligand binding assay relative to control; conditions: Membrane
T5 sequence (whole entry): T2 sequence (P29275 whole entry)

[4] = biological target: T6, Adenosine receptor A1 (Homo sapiens) (UniProt P30542); test: Displacement of [3H]DPCPX from human A1 receptor expressed in CHO cell membranes at 10 uM measured after 3 hrs by radioligand binding assay relative to control; conditions: Membrane
T6 sequence (whole entry): T1 sequence (P30542 whole entry)

Adenosine receptor A3 = biological target: T7, Adenosine receptor A3 (Homo sapiens, UniProt P0DMS8)
T7 sequence (P0DMS8 whole entry): T4 sequence (whole entry)
Description: Displacement of [3H]PSB-11 from human A3 receptor expressed in CHO cell membranes measured after 3 hrs by radioligand binding assay

Adenosine receptor A2a [5] = biological target: T3, Adenosine receptor A2a
Description: Displacement of [3H]ZM241385 from human A2A receptor expressed in HEK293 cell membranes measured after 3 hrs by radioligand binding assay

Adenosine receptor A2a [6] = biological target: T3, Adenosine receptor A2a; remark: listed apart in the source

Compound | Ki (Adenosine receptor A1) | Activity [3] | Activity ([3]; filed as partial agonist) | Ki (Adenosine receptor A2a [5]) | EC50 (Adenosine receptor A2a [6]) | other results
N#Cc1c(-c2ccccc2)cc(SCc2ncc[nH]2)nc1N | 417 nM | – | – | – | – | Ki (Adenosine receptor A2b): 372 nM
Nc1cc(-c2ccccc2)cc(SCc2ncc[nH]2)n1 | – | -12% | – | – | – | Activity (Adenosine receptor A2a [1]): -17%; Activity [2]: 46%; Activity [4]: 12%
N#Cc1c(-c2ccccc2)cc(N)nc1SCc1ncc[nH]1 | 112 nM | 37% | – | – | – | –
N#Cc1c(N)nc(SCc2ncc[nH]2)nc1-c1ccccc1 | 85.1 nM | – | 51% | – | – | Ki (Adenosine receptor A3): 347 nM
Nc1nc(SCc2ncc[nH]2)nc(-c2ccccc2)n1 | 288 nM | 2% | – | 562 nM | 813 nM | –
N#Cc1c(SCc2ncc[nH]2)nc(N)nc1-c1ccccc1 | 69.2 nM | – | 50% | 10 nM | 44.7 nM | –
